Test results reported in patent US6545131B1, “Tissue specific prodrug” (priority 1997, dated 2003).
Starred links: 1 amine or outer side, 2 acyl side, 3 side chain; linkers in the order of their positions; H or OH if unused. Residues, ends and D or L forms follow the SMILES beside them. *: point of attachment. Mu = morpholinocarbonyl, O=C(N1CCOCC1)*; AMC = Cc1cc(=O)oc2cc(N*)ccc12; Morpholide = C1CN(*)CCO1; CO = O=C([*:1])[*:2]; Dox = doxorubicin

Tests used:
TSU-Pr1 cells = assay: Clonogenic survival of TSU-Pr1 cells after 48 hr exposure to doxorubicin prodrugs with or without exogenously added PSA; type: cell-based, human; details: 50 μM prodrug
Protocol: The androgen responsive PSA-producing LNCaP and androgen independent PSA non-producing TSU-Pr1 are human prostate cancer lines were obtained from ATCC (Rockville, Md.) and maintained by serial passage in RPMI 1640 media containing 10% fetal calf serum with 100 units/ml penicillin G, and 100 units/ml streptomycin sulfate (antibiotics from M.A. Bioproducts, Walkerville, Md.) as standard media in 5% CO2/95% air at 37° C. The origins and characteristics of the LNCaP and TSU-Pr1 cell lines are described in Horoszewicz, et al., Cancer Res., 43:1809-1818, (1980)and Iizumi, et al., J. Urol, 137: 1304-1306, (1987).
Percentage clonogenic survival of TSU-Pr1 (2×10^5 cells) following 48 hr. exposure to varying concentrations of doxorubicin prodrugs with or without exogenously added PSA was performed as described in Martikainen et al., Cancer Res., 51:4693-4700, (1991).
Results for Mu-His-Ser-Ser-Lys-Leu-Gln-doxorubicin (SEQ ID NO:16) at 50 μM, were 122 colonies for treatment without PSA, and 110 colonies for treatment with 30 μg/ml enzymatically active PSA. Results are shown as averages (n=5) with standard error of 2 to 7. Assays were done in triplicate.

[1] = target: sarcoplasmic reticulum (SR) and endoplasmic reticulum (ER) Ca2+-ATPase (SERCA) pump; details: read-out: apparent dissociation constant; cited from earlier work
[2] = target: T1, endoplasmic reticulum Ca2+-ATPase (SERCA), SR vesicles from rabbit skeletal muscle (Oryctolagus cuniculus, UniProt P04191); assay: SERCA inhibition: 45Ca2+ uptake to sarcoplasmic reticulum vesicles; type: biochemical; details: mean (n=3) ± standard error; 5 μg/ml SR protein, free Ca2+ 100 nM, 4 min uptake; read-out: IC50 (50% inhibition of 45Ca2+ uptake to SR vesicles)
T1 construct: sarcoplasmic reticulum (SR) vesicles prepared from rabbit skeletal muscle; from tissue; host or cells: rabbit skeletal muscle sarcoplasmic reticulum vesicles
T1 sequence (P04191 1-994 isoform P04191-2): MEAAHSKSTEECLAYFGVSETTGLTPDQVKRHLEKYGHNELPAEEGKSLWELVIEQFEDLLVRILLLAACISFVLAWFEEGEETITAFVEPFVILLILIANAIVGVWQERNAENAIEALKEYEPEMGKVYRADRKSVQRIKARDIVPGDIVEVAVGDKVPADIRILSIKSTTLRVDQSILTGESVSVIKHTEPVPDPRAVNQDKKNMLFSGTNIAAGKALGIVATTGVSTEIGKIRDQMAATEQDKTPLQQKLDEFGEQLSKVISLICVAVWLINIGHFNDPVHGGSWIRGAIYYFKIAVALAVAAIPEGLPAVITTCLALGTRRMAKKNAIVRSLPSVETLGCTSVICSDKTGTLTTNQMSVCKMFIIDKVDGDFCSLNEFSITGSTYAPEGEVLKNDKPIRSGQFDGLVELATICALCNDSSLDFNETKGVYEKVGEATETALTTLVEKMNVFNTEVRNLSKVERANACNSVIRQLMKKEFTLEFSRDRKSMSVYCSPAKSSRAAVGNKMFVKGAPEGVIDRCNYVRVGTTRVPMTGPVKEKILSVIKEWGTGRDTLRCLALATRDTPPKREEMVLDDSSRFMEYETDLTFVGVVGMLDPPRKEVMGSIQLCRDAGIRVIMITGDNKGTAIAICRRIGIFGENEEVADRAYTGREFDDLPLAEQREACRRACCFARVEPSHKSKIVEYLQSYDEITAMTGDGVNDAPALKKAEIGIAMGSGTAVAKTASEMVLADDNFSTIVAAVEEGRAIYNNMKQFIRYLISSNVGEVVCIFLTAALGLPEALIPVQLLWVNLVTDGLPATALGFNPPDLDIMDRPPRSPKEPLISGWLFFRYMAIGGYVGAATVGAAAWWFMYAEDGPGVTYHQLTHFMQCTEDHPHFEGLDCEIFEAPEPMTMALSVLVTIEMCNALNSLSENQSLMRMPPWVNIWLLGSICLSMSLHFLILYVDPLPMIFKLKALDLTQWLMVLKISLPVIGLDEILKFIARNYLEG
Protocol: The primary amine-containing thapsigargin analogs of the invention have endoplasmic reticulum Ca^2+-ATPase inhibitory activity. This activity is measured as the concentration of analog needed to inhibit 50% of this ATPase (IC50). The IC50 of the analogs of the invention is desirably at most 500 nM, preferably at most 200 nM, and more preferably at most 50 nM of analog.
The inhibitory potency of thapsigargin and its analogs was determined as the concentration required to produce 50% inhibition (i.e. IC50) of ^45Ca^2+ uptake to sarcoplasmic reticulum (SR) vesicles prepared from rabbit skeletal muscle by the method of De Meis and Hasselbach (J. Biol. Chem., 246: 4759-4763, 1971). The ^45Ca^2+ uptake assay was as described previously (Christensen, et al., FEBS, 335: 345-348, 1993), with the following modifications: 5 μg/ml of SR protein was incubated at 25EC and free Ca^2+ adjusted to 100 nM using 4 min. uptake time. Under these conditions, Ca^2+ could proceed linearly with time for at least 8 minutes. Measurements of Ca^2+ within TSU cells was determined as described previously (Lin et al., The Prostate, 33:201-207, 1997).
The IC50 results are mean (n=3)±standard error. The LC50 results are mean (n=5)±standard error. The entry “ND” stands for “not determined”. Clonogenic survival not determined above 10 μM for dBTG. Analogs with −boc have a t-butoxycarbonyl (boc) protected amino group.

[3] = cited from earlier work
[4] = Clonogenic survival of TSU-Pr1 cells after 72 hours exposure to TG analogs; type: cell-based, human; details: human; TSU-Pr1, 72 hours exposure; mean (n=5) ± standard error; read-out: LC50 (concentration needed to kill 50% of clonogenic cells)
Summary of the method: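 Androgen-independent human prostate cancer TSU-Pr1 cells (2×10^5) were exposed for 72 h to varying thapsigargin analog concentrations, and clonogenic survival was then assessed. LC50 is the concentration killing 50% of clonogenic cells, reported as mean of n=5 ± SE.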

[5] = Cytotoxic activity (LD50) of thapsigargin and debutanoyl derivative; type: cell-based
Protocol: The starting material for all the synthesized analogs is 8-O-debutanoylthapsigargin, which is easily available by triethylamine catalyzed methanolysis of thapsigargin. Removal of the butanoyl results in loss of cytotoxic activity with an LD50 of >50 μM compared to <100 nM for thapsigargin. Anhydrides of dicarboxylic acids of various lengths afforded analogs in which the acyl group attached to the O-8 ended in a free carboxylic acid. A dicyclohexylcarbodiimide (DCCI) promoted coupling of a 2,4-diaminoarene to the carboxylic acid analogs affords the derivatives in which contain a primary aromatic amine as a potential coupling point for additional moeities.

[6] = target: T2, PSA (prostate specific antigen) (Homo sapiens, UniProt P07288); assay: Cleavage of AMC-labelled peptide substrates by purified PSA (fluorescence of released AMC; Lineweaver-Burke kinetics); type: biochemical
T2 construct: PSA was purified from human seminal plasma; from tissue; host or cells: human seminal plasma
T2 sequence (P07288 25-261): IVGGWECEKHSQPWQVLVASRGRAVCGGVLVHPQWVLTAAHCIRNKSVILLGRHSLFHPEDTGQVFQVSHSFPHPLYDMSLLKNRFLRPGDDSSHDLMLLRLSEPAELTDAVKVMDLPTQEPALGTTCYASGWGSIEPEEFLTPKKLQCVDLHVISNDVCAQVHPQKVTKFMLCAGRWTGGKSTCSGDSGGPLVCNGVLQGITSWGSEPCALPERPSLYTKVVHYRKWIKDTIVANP

[7] = Stability of PSA substrates in serum (AMC release); type: in vitro ADME; details: 0.2 mM substrate
Trypsin = assay: Peptide-AMC cleavage by purified extracellular protease; type: biochemical; details: 0.2 mM substrate, PSA assay buffer pH 7.8
urokinase = target: T3, urokinase (Homo sapiens, UniProt P00749); assay: as above; type: biochemical; details: 0.2 mM substrate, PSA assay buffer pH 7.8
T3 construct: purchased Calbiochem

chymotrypsin = target: T4, chymotrypsin (Bos taurus, UniProt P00766); assay: as above; type: biochemical; details: 0.2 mM substrate, PSA assay buffer pH 7.8
T4 construct: purchased Sigma Chemical Co

Elastase = assay: as above; type: biochemical; details: 0.2 mM substrate, PSA assay buffer pH 7.8
human kallikrein, hK1 = assay: as above; type: biochemical; details: 0.2 mM substrate, PSA assay buffer pH 7.8
[8] = target: T5, tissue plasminogen activator (TPA) (Homo sapiens, UniProt P00750); assay: as above; type: biochemical; details: 0.2 mM substrate, PSA assay buffer pH 7.8
T5 construct: purchased Calbiochem
T5 sequence (P00750 36-562, species assumed): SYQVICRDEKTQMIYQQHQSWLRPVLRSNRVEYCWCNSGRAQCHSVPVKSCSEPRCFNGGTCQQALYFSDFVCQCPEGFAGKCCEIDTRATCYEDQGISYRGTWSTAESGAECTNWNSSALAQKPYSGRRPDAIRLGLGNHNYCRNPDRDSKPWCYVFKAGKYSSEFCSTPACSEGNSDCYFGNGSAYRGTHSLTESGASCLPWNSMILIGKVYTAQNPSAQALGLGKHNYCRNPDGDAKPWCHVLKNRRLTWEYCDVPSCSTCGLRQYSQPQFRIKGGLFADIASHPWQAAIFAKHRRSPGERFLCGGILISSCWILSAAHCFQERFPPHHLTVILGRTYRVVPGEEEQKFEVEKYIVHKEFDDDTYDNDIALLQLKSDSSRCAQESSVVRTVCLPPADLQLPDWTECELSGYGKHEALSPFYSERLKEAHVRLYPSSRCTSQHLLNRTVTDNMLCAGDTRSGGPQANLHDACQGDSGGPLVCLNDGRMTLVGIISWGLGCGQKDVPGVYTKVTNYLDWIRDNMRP

thrombin = target: T6, thrombin (Homo sapiens, UniProt P00734); assay: as above; type: biochemical; details: 0.2 mM substrate, PSA assay buffer pH 7.8
T6 construct: purchased Sigma Chemical Co

Plasmin = target: T7, Plasmin (Homo sapiens, UniProt P00747); assay: as above; type: biochemical; details: 0.2 mM substrate, PSA assay buffer pH 7.8
T7 construct: purchased Calbiochem
T7 sequence (P00747 581-810 limits assumed, species assumed): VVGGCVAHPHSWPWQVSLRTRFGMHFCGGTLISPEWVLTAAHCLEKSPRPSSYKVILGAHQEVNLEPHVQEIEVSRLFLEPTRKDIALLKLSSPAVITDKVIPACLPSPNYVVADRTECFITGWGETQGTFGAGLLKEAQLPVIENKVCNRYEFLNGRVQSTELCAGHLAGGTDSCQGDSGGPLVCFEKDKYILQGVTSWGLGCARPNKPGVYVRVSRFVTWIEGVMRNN
T7 sequence (P00747 97-580 partner limits assumed, species assumed): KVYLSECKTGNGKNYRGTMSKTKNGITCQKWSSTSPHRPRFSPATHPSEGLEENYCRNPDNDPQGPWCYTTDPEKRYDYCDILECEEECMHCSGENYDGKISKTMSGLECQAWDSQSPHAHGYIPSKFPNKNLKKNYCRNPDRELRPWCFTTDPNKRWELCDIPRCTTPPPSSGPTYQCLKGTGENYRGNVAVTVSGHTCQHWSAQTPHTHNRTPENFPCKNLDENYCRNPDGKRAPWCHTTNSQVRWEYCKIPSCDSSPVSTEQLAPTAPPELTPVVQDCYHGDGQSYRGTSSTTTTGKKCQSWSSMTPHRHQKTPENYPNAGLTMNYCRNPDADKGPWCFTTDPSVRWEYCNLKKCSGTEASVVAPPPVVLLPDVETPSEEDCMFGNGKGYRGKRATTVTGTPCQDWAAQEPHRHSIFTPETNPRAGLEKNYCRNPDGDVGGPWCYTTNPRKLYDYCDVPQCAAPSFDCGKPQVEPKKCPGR

Cathepsin D = target: T8, Cathepsin D (Homo sapiens, UniProt P07339); assay: PSA substrate cleavage by purified intracellular protease; type: biochemical; details: 0.2 mM substrate, pH 7.8; SKLQ, KLQ, LQ in 1.4% acetonitrile/buffer, Q-AMC in 0.2% formic acid/buffer
T8 construct: purchased Sigma Chemical Co
T8 sequence (P07339 65-412): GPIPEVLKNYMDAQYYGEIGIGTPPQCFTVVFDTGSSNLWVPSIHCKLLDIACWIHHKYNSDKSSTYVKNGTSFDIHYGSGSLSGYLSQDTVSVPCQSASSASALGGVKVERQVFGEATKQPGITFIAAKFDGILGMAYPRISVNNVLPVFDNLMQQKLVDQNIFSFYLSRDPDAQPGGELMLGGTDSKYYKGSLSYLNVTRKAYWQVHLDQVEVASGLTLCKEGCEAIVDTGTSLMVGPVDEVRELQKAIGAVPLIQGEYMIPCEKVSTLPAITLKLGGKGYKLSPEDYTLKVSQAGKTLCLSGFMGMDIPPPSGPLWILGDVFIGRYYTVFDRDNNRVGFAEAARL
Protocol: (§1) Cleavage was studied by measuring fluorescence change secondary to AMC release. Fluorescence detection was carried out with a Fluoroskan II 96 well fluorometric plate reader (ICN Biomedicals, Costa Mesa, Calif.), with excitation wavelength 355 nm and emission wavelength 460 nm. Data were collected and analyzed using Deltasoft III software (Biometallics, Princeton, N.J.). All reactions were performed at room temperature by the addition of substrate and proteases into PSA buffer, described below, in a final volume of 200 μL. The results were determined from the initial linear increase of fluorescence and were expressed as the picomoles of AMC released per minute based upon comparison to a standard curve of the fluorescence of known amounts of AMC (i.e., fluorescence was linear form 20 to 300 picomoles of AMC). The data were analyzed by Lineweaver-Burke reciprocal plots to determine the Michaelis-Menten constant (i.e., Km) expressed as the amount of substrate needed to saturate half of the enzyme and the catalytic rate constant (i.e., kcat) expressed as the amount of substrate converted to product per time per amount of enzyme.
(§2) A family of peptide substrates based upon the EHSSKLQ (SEQ ID NO:10) sequence was assayed for activity for the intracellular proteases, and the results given in Table 4.
(§3) The amino acid sequences expressed in one letter amino acid code represent the following amino acid sequences in the three letter amino acid code: EHSSKLQ (Glu-His-Ser-Ser-Lys-Leu-Gln; SEQ ID NO:10), The shorter sequences are formed by deleting amino acids from the amino terminal side of the sequence. Determinations listed in the table were carried out with substrates at 0.2 mM concentration in the PSA assay buffer (50 mM Tris/0.1M NaCl pH 7.8), except SKLQ (SEQ ID NO:1), KLQ and LQ, which were carried out in 1.4% acetonitrile/buffer and Q-AMC which was carried out in 0.2% formic acid/buffer, at pH 7.8. The entry “UD” stands for “undetectable” and means that at most, 0.1 pmole of substrate cleavage per minute per 200 pmole protease took place. Asterisks represent experiments not performed. Abbreviations are as follows: PSA (prostate specific antigen), Cath B, C, D (Cathepsins, B, C, D), Esterase (porcine liver esterase).

porcine liver esterase = assay: as above; type: biochemical; details: 0.2 mM substrate, pH 7.8; SKLQ, KLQ, LQ in 1.4% acetonitrile/buffer, Q-AMC in 0.2% formic acid/buffer
Protocol: as §1, §2, §3

Cathepsin C = target: T9, Cathepsin C (Homo sapiens, UniProt P53634); assay: as above; type: biochemical; details: 0.2 mM substrate, pH 7.8; SKLQ, KLQ, LQ in 1.4% acetonitrile/buffer, Q-AMC in 0.2% formic acid/buffer
T9 construct: purchased Sigma Chemical Co
T9 sequence (P53634 25-463): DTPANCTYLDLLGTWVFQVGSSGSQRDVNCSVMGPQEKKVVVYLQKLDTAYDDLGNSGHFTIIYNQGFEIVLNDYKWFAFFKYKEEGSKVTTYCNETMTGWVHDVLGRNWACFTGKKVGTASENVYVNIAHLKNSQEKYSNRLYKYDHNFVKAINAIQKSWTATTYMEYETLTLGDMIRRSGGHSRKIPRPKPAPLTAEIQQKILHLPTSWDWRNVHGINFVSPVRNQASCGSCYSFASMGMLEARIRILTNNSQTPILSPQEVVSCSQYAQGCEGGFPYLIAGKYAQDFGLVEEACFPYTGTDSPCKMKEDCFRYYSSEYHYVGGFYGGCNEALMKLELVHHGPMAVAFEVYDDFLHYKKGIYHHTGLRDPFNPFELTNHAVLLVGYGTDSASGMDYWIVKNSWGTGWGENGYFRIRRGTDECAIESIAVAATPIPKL
Protocol: as §1, §2, §3

Cathepsin B = target: T10, Cathepsin B (Homo sapiens, UniProt P07858); assay: as above; type: biochemical; details: 0.2 mM substrate, pH 7.8; SKLQ, KLQ, LQ in 1.4% acetonitrile/buffer, Q-AMC in 0.2% formic acid/buffer
T10 construct: purchased Sigma Chemical Co
Protocol: as §1, §2, §3

[9] = PSA substrate, PSA assay buffer pH 7.8, Lineweaver-Burke

Mu-His-Ser-Ser-Lys-Leu-Gln-doxorubicin (Mu-HSSKLQ-Dox; listed as Homo sapiens) [doxorubicin prodrug without Leu linker; b202 describes it as acetyl-capped]
number of TSU-Pr1 colonies, treatment with 30 μg/ml enzymatically active PSA (TSU-Pr1 cells; with 30 μg/ml PSA): 110 colonies | number of TSU-Pr1 colonies, treatment without PSA (TSU-Pr1 cells; without PSA): 122 colonies

C/C=C(/C)C(=O)O[C@H]1C(C)=C2[C@H]([C@@H]1OC(=O)CCCCCCC)[C@@](C)(OC(C)=O)C[C@H](OC(=O)CCC)[C@@]1(O)[C@H]2OC(=O)[C@@]1(C)O [TG, Thapsigargin]
Kd [1]: ≤ 0.0022 nM | IC50 [2]: 5 ± 0.3 nM | solubility in water [3]: poorly soluble in water | CC50 [4]: 30 ± 4 nM | LD50 (cytotoxic activity) [5]: < 0.1 µM

C/C=C(/C)C(=O)O[C@H]1C(C)=C2[C@H]([C@@H]1OC(=O)CCCCCCC)[C@@](C)(OC(C)=O)C[C@H](O)[C@@]1(O)[C@H]2OC(=O)[C@@]1(C)O [dBTG, 8-O-debutanoylthapsigargin, reference compound]
IC50 [2]: 149 ± 21 nM | CC50 [4]: > 10000 nM | LD50 (cytotoxic activity) [5]: > 50 µM

Cc1cc(=O)oc2cc(NC(=O)[C@H](CCC(N)=O)NC(=O)[C@H](CC(C)C)NC(=O)[C@H](CCCCN)NC(=O)[C@H](CO)NC(=O)[C@H](CO)NC(=O)[C@H](Cc3c[nH]cn3)NC(=O)[C@H](CCC(=O)O)NC(=O)N3CCOCC3)ccc12 [EHSSKLQ, Glu-His-Ser-Ser-Lys-Leu-Gln] ({Morpholide-CO}-EHSSKLQ-{AMC})
Picomoles of substrate cleaved/minute/200 pmoles of indicated protease: PSA ([6]; 0.2 mM substrate, PSA assay buffer pH 7.8, room temperature): 31.6 picomoles/minute/200 pmoles pr | picomoles of peptide cleaved/min/200 picomoles protease: PSA ([6]; 0.2 mM substrate, pH 7.8, SKLQ, KLQ, LQ in 1.4% acetonitrile/buffer, Q-AMC in 0.2% formic acid/buffer): 31.6 picomoles/min/200 picomoles pr | Kcat [6, 9]: 0.02 s⁻¹ | Km [6, 9]: 1160 µM | picomles AMC released/minute: Calf [7]: UD (not more than 0.01 picomole of substrate per minute was cleaved) | picomles AMC released/minute: Fetal Calf [7]: UD (not more than 0.01 picomole of substrate per minute was cleaved) | picomles AMC released/minute: Goat [7]: UD (not more than 0.01 picomole of substrate per minute was cleaved) | picomles AMC released/minute: Mouse [7]: 2.17 picomoles/minute | picomles AMC released/minute: Rat [7]: 0.06 picomoles/minute | picomles AMC released/minute: Human ([7]; human serum 100%): UD (not more than 0.01 picomole of substrate per minute was cleaved) | Picomoles of substrate cleaved/minute/200 pmoles of indicated protease: Trypsin (Trypsin): UD (at most, 0.1 pmole of substrate cleavage per minute per 200 pmole protease took place) | Picomoles of substrate cleaved/minute/200 pmoles of indicated protease: Urokin (urokinase): UD (at most, 0.1 pmole of substrate cleavage per minute per 200 pmole protease took place) | Picomoles of substrate cleaved/minute/200 pmoles of indicated protease: Chymo (chymotrypsin): UD (at most, 0.1 pmole of substrate cleavage per minute per 200 pmole protease took place) | Picomoles of substrate cleaved/minute/200 pmoles of indicated protease: Elastase (Elastase): UD (at most, 0.1 pmole of substrate cleavage per minute per 200 pmole protease took place) | Picomoles of substrate cleaved/minute/200 pmoles of indicated protease: Kallik (human kallikrein, hK1): UD (at most, 0.1 pmole of substrate cleavage per minute per 200 pmole protease took place) | Picomoles of substrate cleaved/minute/200 pmoles of indicated protease: TPA [8]: UD (at most, 0.1 pmole of substrate cleavage per minute per 200 pmole protease took place) | Picomoles of substrate cleaved/minute/200 pmoles of indicated protease: Thromb (thrombin): UD (at most, 0.1 pmole of substrate cleavage per minute per 200 pmole protease took place) | Picomoles of substrate cleaved/minute/200 pmoles of indicated protease: Plasmin (Plasmin): UD (at most, 0.1 pmole of substrate cleavage per minute per 200 pmole protease took place) | picomoles of peptide cleaved/min/200 picomoles protease: Cath D (Cathepsin D): 2.2 picomoles/min/200 picomoles pr | picomoles of peptide cleaved/min/200 picomoles protease: Esterase (porcine liver esterase): UD (at most, 0.1 pmole of substrate cleavage per minute per 200 pmole protease took place) | picomoles of peptide cleaved/min/200 picomoles protease: Cath C (Cathepsin C): UD (at most, 0.1 pmole of substrate cleavage per minute per 200 pmole protease took place) | picomoles of peptide cleaved/min/200 picomoles protease: Cath B (Cathepsin B): 4.3 picomoles/min/200 picomoles pr
